Measured values as given in patent US10508092B2, “Synthesis of novel analogs of diptoindonesin G, compounds formed thereby, and pharmaceutical compositions containing them” (Wisconsin Alumni Research Foundation, priority 2016, dated 2019).
Entries after “also recorded” stand apart in the source; their conditions may differ.

Experiments:
[1] = system: estrogen receptor α (ERα); experiment: Western blot of ERα levels in MCF7 cells; assay type: cell-based, human
Description: FIGS. 1A, 1B, and 1C together depict the biological activity of the subject compounds on estrogen receptor α (ERα) levels in human breast cancer cells.
(§1) The biological activity of these four analogs were then compared with the parent compound Dip G following our previous protocol (Zhao et al., supra). See FIGS. 1A, 1B, 1C, 2A, 2B, and 2C. Cells were treated with each compound at 10 μM concentration in order to evaluate how well each modified the stability of ERα and ERβ.
(§2) MCF7 cells were treated with Dip G and analogs for 24 hours before harvesting. Hs578T-tet-on-ERβ cells (ATCC HTB-126; American Type Culture Collection, Manassas, Va.) were treated with doxycycline for 24 hours to induce ERβ expression. Then the cells were treated with compounds for 5 days before harvesting. 15 μg of total cell lysates were resolved on SDS-PAGE and Western blot analyses were performed as previously described using ERα antibody (HC-20, Santa Cruz Biotechnology, Inc., Dallas, Tex.) and anti-FLAG antibody (F7425, Sigma-Aldrich Co., LLC, St. Louis, Mo.) for ERβ.^3

ERα [2] = experiment: ERα transcriptional activity in MCF7 cells; assay type: cell-based, human
ERα Y537S = experiment: ERE-Luciferase activity of ERα Y537S in T47D cells; assay type: cell-based, human
Description: (§3) FIG. 6 is a histogram depicting Dip G- and Dip G-D1-inhibited E2-dependent ERE-Luciferase activities of wildtype ERα or ERα Y537S in T47D cells. Cells were co-treated with 10 nM E2 and Dip G or Dip G-D1 (10 μM) for 24 hrs. The experiments were performed in triplicate. Data are represented as mean±SD, n=3.
See Merenbakh-Lamin, K., Ben-Baruch, N., Yeheskel, A., Dvir, A., Soussan-Gutman, L., Jeselsohn, R., Yelensky, R., Brown, M., Miller, V. A., Sarid, D. et al. (2013) “D538G mutation in estrogen receptor-alpha: A novel mechanism for acquired endocrine resistance in breast cancer,” Cancer research, 73:6856-6864 and Jeselsohn, R., Yelensky, R., Buchwalter, G., Frampton, G., Meric-Bernstam, F., Gonzalez-Angulo, A. M., Ferrer-Lozano, J., Perez-Fidalgo, J. A., Cristofanilli, M., Gomez, H. et al. (2014) “Emergence of constitutively active estrogen receptor-alpha mutations in pretreated advanced estrogen receptor-positive breast cancer,” Clinical cancer research: an official journal of the American Association for Cancer Research, 20:1757-1767. Using these ERα mutant expressing cell lines, we will: (a) compare ERα degradation rate induced by fulvestrant, Dip G and Dip G-D1 using ELISA assay as shown in FIG. 5; (b) measure IC50 of Dip G and Dip G analogues to inhibit ERα transcriptional activity in luciferase assay.

CHIP ubiquitin E3 ligase = molecular target: T1, CHIP ubiquitin E3 ligase (Homo sapiens, UniProt Q9UNE7); experiment: Binding to CHIP ubiquitin E3 ligase
T1 sequence (Q9UNE7 1-303): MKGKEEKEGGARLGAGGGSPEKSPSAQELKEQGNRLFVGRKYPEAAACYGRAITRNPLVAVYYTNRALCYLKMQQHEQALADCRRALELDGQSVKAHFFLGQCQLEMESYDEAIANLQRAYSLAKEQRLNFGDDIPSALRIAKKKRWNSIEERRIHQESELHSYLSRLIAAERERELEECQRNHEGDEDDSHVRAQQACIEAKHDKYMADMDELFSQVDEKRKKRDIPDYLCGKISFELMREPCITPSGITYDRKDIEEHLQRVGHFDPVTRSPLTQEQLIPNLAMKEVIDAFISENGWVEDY

[3] = system: estrogen receptor β (ERβ); experiment: Western blot of FLAG-ERβ levels in Hs578T-ERβLuc Dox-inducible cells; assay type: cell-based, human; details: Hs578T-ERβLuc Dox-inducible line, 10 μM, 5 days, Western blot (anti-FLAG)
Description: FIGS. 2A, 2B, and 2C together depict the biological activity of the subject compounds on estrogen receptor β (ERβ) levels in human breast cancer cells.
as §1, §2

ERα [4] = molecular target: T2, ERα (Homo sapiens, UniProt P03372); experiment: Direct binding to ERα
T2 sequence (P03372 1-595): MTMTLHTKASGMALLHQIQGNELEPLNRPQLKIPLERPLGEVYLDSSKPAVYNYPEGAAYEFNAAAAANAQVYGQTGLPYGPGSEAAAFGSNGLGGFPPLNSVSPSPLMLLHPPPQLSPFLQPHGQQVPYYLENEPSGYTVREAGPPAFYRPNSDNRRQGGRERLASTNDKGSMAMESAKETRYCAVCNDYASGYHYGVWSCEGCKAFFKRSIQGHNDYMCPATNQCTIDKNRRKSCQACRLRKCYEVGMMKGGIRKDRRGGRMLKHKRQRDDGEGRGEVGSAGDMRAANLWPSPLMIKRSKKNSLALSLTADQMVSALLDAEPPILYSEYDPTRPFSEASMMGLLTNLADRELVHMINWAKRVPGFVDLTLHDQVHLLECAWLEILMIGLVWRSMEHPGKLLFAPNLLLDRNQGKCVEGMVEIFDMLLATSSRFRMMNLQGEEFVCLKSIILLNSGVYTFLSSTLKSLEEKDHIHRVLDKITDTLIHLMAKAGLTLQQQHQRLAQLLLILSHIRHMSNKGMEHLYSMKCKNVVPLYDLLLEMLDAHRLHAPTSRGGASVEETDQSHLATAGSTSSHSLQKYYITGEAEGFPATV

wildtype ERα = experiment: ERE-Luciferase activity of wildtype ERα in T47D cells; assay type: cell-based, human; details: co-treated with 10 nM E2, 10 μM, 24 hrs
Description: as §3

[5] = system: estrogen receptor β (ERβ); details: breast cancer, Zhao et al. 2015; cited from earlier work
[6] = Maximum tolerated dose in mouse models; details: in vivo, five days out of seven
Description: Dip G was synthesized as described and formulated for the in vivo treatment. Dip G was prepared by dissolving the stock powder in 100% DMSO to a final concentration of 50 mg/ml. This stock solution was then diluted 1:5 into a 40% polyethylene glycol (PEG300)/40% normal saline (0.9% NaCl) solution to a final concentration of 20% Dip G solution. […] To determine MTD, escalating doses of Dip G dissolved in the aforementioned formulation were injected retro-orbitally or by oral gavage daily, five days out of seven to determine the MTD. […] (Data not shown.) Dip G was intra-tumorally delivered to ERα-positive T47D xenografted mice three times a week and the tumors were monitored for three weeks. […] (AST ELISAs are available commercially from several suppliers, including Abcam, Cambridge, Mass.)

O=C1c2c(O)cc(O)cc2-c2c(-c3ccc(O)cc3)oc3cc(O)cc1c23 [Dip G, diptoindonesin G]
amount of endogenous ERα in MCF7 cells ([1]; 10 μM, compared to untreated cells, gel blot FIG. 4): degrades endogenous ERα; also recorded: greatly decreased | ERα stability ([1]; MCF7 cells, 10 μM, 24 hours, Western blot): decreased ERα stability with the largest change | endogenous ERα protein levels ([1]; MCF7 cells, FIG. 4): less than 20% | ERα transcriptional activity (ERα [2]): decreases ERα transcriptional activity | E2-dependent ERE-Luciferase activity of ERα Y537S (ERα Y537S; T47D cells, co-treated with 10 nM E2, 10 μM, 24 hrs): inhibited | ligand-independent transcription activity of ERα Y537S mutant (ERα Y537S; T47D expressing ERα Y537S, preliminary data): can be inhibited | binding to CHIP ubiquitin E3 ligase (CHIP ubiquitin E3 ligase): binds | ERβ stability [3]: strongly stabilized | direct binding to ERα (ERα [4]): does not directly bind | E2-dependent ERE-Luciferase activity of wildtype ERα (wildtype ERα): inhibited | stability of ERβ [5]: increases the stability | MTD ([6]; oral gavage daily): 50 mg/kg | MTD ([6]; other: retro-orbital injection, retro-orbital injection daily): 20 mg/kg
